Measured values: ChEMBL document CHEMBL6109033, “Design and synthesis of novel antioxidants derived from chalcones and their protective effects on cardiomyocytes by activating Nrf2/HO-1 pathway” (Bioorg Med Chem Lett, 2025)
Activity calls are given as the source filed them. The rule behind the calls is not given here.

Assays:
H9c2 [1] = test: Antioxidant activity against H2O2-induced oxidative stress in rat H9c2 cells assessed as cell viability at 5 uM pretreated with compounds for 18 hrs followed by H2O2 stimulation for 24 hrs by MTT assay; assay type: functional, cell-based; conditions: time 42.0 hrs
H9c2 [2] = test: Cytoprotective activity against H2O2-induced rat H9c2 cells assessed as reversal of colony formation inhibition by colony formation assay; assay type: functional, cell-based; conditions: dose 1.25-5 µM
H9c2 [3] = test: Cytoprotective activity against H2O2-induced oxidative stress in rat H9c2 cells assessed as inhibition of cell viability pretreated with compounds for 18 hrs followed by H2O2 stimulation for 24 hrs by MTT assay; assay type: functional, cell-based; conditions: dose 0.625-5 µM, time 42.0 hrs
H9c2 [4] = test: Inhibition of H2O2-induced oxidative stress in rat H9c2 cells assessed as reduction intracellular ROS level pretreated with compounds for 18 hrs followed by H2O2 stimulation for 2 hrs by DCFH-DA based fluorescence microscopic analysis; assay type: functional, cell-based; conditions: dose 1.25-5 µM, time 20.0 hrs
H9c2 [5] = test: […] of H2O2-induced oxidative stress in rat H9c2 cells assessed as decrease in MDA level pretreated with compounds for 18 hrs followed by H2O2 stimulation for 2 hrs by MDA assay; assay type: functional, cell-based; conditions: dose 1.25-5 µM, time 20.0 hrs
H9c2 [6] = test: Downregulation of Nrf2 expression in rat H9c2 cells transfected with Nrf2 siRNA at 0.625 uM pretreated with compound for 18 hrs followed by H2O2 stimulation for 24 hrs by Western blot analysis; assay type: functional, cell-based; conditions: time 42.0 hrs
H9c2 [7] = test: Cytoprotective activity against high glucose-induced oxidative stress in rat H9c2 cells assessed as inhibition of cell viability pretreated with compounds for 18 hrs followed by H2O2 stimulation for 24 hrs by MTT assay; assay type: functional, cell-based; conditions: dose 0.625-5 µM, time 42.0 hrs
H9c2 [8] = test: Upregulation of HO-1 protein expression in rat H9c2 cells incubated for 18 hrs by Western blot analysis; assay type: functional, cell-based; conditions: dose 0.625-2.5 µM
H9c2 [9] = test: Activation of Nrf2 nuclear translocation in rat H9c2 cells assessed as increase in accumulation of Nrf2 in nucleus at 10 uM incubated for 6 hrs by DAPI staining based fluorescence microscopic analysis; assay type: cell-based; conditions: filed as activator

| Compound | Activity (H9c2 [1]) | further results |
| --- | --- | --- |
| COc1ccc(OC)c([C@H]2CN(C)C3(C(=O)Nc4ccc(F)cc43)[C@H]2C(=O)c2ccc(O)c(O)c2)c1 (some centres undefined) | Active |  |
| COc1ccc(OC)c([C@H]2CN(C)C3(C(=O)Nc4ccccc43)[C@H]2C(=O)c2ccc(O)c(O)c2)c1 (some centres undefined) | Active | Activity (H9c2 [2]): Dose-dependent-effect; Activity (H9c2 [3]): Dose-dependent-effect; inhibition (H9c2 [4]): Dose-dependent-effect; Activity (H9c2 [5]): Dose-dependent-effect; Activity (H9c2 [6]): Active; Activity (H9c2 [7]): Dose-dependent-effect; Activity (H9c2 [8]): Dose-dependent-effect; Activity (H9c2 [9]): Active |
| COc1ccccc1/C=C/C(=O)c1ccc(O)c(O)c1 | Active |  |
| COc1ccc(OC)c(/C=C/C(=O)c2ccc(O)c(O)c2)c1 | Active |  |
| COc1ccccc1[C@H]1CN(C)C2(C(=O)Nc3ccc(C)cc32)[C@H]1C(=O)c1ccc(O)c(O)c1 (some centres undefined) | Active |  |
| COc1ccccc1[C@H]1CN(C)C2(C(=O)Nc3ccccc32)[C@H]1C(=O)c1ccc(O)c(O)c1 (some centres undefined) | Active |  |
| COc1ccc(OC)c([C@H]2CN(C)C3(C(=O)Nc4ccc(C)cc43)[C@H]2C(=O)c2ccc(O)c(O)c2)c1 (some centres undefined) | Active |  |
| COc1ccc(OC)c([C@H]2CN(C)C3(C(=O)Nc4ccc(OC)cc43)[C@H]2C(=O)c2ccc(O)c(O)c2)c1 (some centres undefined) | Active |  |
| COc1ccc(OC)c([C@H]2CN(C)C3(C(=O)Nc4ccc(Br)cc43)[C@H]2C(=O)c2ccc(O)c(O)c2)c1 (some centres undefined) | Active |  |
| COc1ccc(OC)c([C@H]2CN(C)C3(C(=O)Nc4ccc(Cl)cc43)[C@H]2C(=O)c2ccc(O)c(O)c2)c1 (some centres undefined) | Active |  |
| COc1ccccc1[C@H]1CN(C)[C@]2(C(=O)c3cccc4cccc2c34)[C@H]1C(=O)c1ccc(O)c(O)c1 | Active |  |
| COc1ccccc1[C@H]1CN(C)C2(C(=O)Nc3ccc(Cl)cc32)[C@H]1C(=O)c1ccc(O)c(O)c1 (some centres undefined) | Active |  |
| COc1ccccc1[C@H]1CN(C)C2(C(=O)Nc3ccc(F)cc32)[C@H]1C(=O)c1ccc(O)c(O)c1 (some centres undefined) | Active |  |
| COc1ccc(OC)c([C@H]2CN(C)[C@]3(C(=O)c4cccc5cccc3c45)[C@H]2C(=O)c2ccc(O)c(O)c2)c1 | Active |  |
| COc1ccc2c(c1)C1(C(=O)N2)[C@@H](C(=O)c2ccc(O)c(O)c2)[C@@H](c2ccccc2OC)CN1C (some centres undefined) | Active | Activity (H9c2 [2]): Dose-dependent-effect; Activity (H9c2 [3]): Dose-dependent-effect; inhibition (H9c2 [4]): Dose-dependent-effect; Activity (H9c2 [5]): Dose-dependent-effect; Activity (H9c2 [7]): Dose-dependent-effect |
| COc1ccccc1[C@H]1CN(C)C2(C(=O)Nc3ccc(Br)cc32)[C@H]1C(=O)c1ccc(O)c(O)c1 (some centres undefined) | Active |  |
